Read-outs that look alike come from different tables or passages of the source.
Legend:
[1] = Transport of supinoxin in Caco-2 cells (bidirectional permeability); assay type: in vitro ADME; settings: human
Protocol: The Caco-2 intestinal epithelial cell line (ATCC® HTB-37™) purchased from American Type Culture Collection (ATCC, Manassas, VA, USA) was cultured and maintained in Dulbecco’s modified Eagle medium (DMEM) containing 10% fetal bovine serum, 100 U/mL penicillin, and 0.1 mg/mL streptomycin under humidified atmosphere of air containing 5% CO2 at 37 °C. Caco-2 cells were seeded at a density of 6 × 10^4 cells/cm^2 onto polyethylene membranes of transwell plates (Corning Costar, Cambridge, MA, USA). The medium was replaced on alternate days after seeding, and cell monolayers were used for the transport assay after approximately 21 days of culture. Trans-epithelial electrical resistance (TEER) values of the Caco-2 monolayers were measured with an EVOM epithelial tissue voltmeter (World Precision Instruments, Sarasota, FL, USA), and cells with TEER greater than 300 Ω were used for the experiments. Cell monolayers were first rinsed three times with transport buffer (Hank’s balanced salt solution supplemented with 10 mM HEPES) and preincubated for 30 min at 37 °C. To measure the bidirectional transport of the compound, a transport buffer containing 1 µM supinoxin was added to the respective donor compartments (the apical and basolateral sides for absorptive and secretory transport assays, respectively). Samples (200 µL) were collected at 30, 60, 90, and 120 min, and an identical volume of fresh buffer was replenished. The samples were then subjected to LC–MS/MS analysis and concentrations of the samples were determined. After the final sampling from both compartments, we measured the TEER of the monolayers to ensure no possible adverse effects induced by the experimental procedures and then estimated the apparent permeability coefficient of supinoxin from the compound’s time-dependent accumulation (dQ/dt) in the receiver compartments using the following equation: Papp = dQ/dt × 1/(A × C0)(1) where dQ/dt is the rate of transport, A is the surface area of the filter, and C0 is the initial concentration in the donor chamber.

[2] = Tissue distribution (tissue-to-plasma partition) in rats; assay type: in vivo; settings: male, rat; for Vd: oral; for AUC(0-t): mean, read-out: AUC0–24h

Compound: COc1cc(OC)cc(N2CCN(C(=O)Nc3nc4cc(F)ccc4nc3OC)CC2)c1 [supinoxin, 1-(3,5-Dimethoxyphenyl)-4-[(6-Fluoro-2-Methoxyquinoxalin-3-yl) Aminocarbonyl] Piperazine]
- Papp A→B at 120 min, 1 µM ([1]; Caco-2, Caco-2 cell monolayers, supinoxin 1 µM, read-out: apical to basolateral apparent permeability coefficient): 18.5 ± 2.4 ×10⁻⁶ cm/s
- Papp A→B at 120 min, 1 µM ([1]; Caco-2, PBPK input parameter, Determined, read-out: Caco-2 permeability): 18.5 ×10⁻⁶ cm/s
- efflux ratio at 120 min, 1 µM ([1]; Caco-2 cell monolayers): 1.24
- Papp B→A at 120 min, 1 µM ([1]; Caco-2 cell monolayers, supinoxin 1 µM, read-out: basolateral to apical apparent permeability coefficient): 22.6 ± 1.8 ×10⁻⁶ cm/s
- Vd ([2]; Sprague Dawley, plasma, 5 mg/kg, estimated Kp and tissue volumes from literature, read-out: steady state volume of distribution calculated from Kp and tissue volumes): 1.92 L
- AUC(0-t) ([2]; Sprague Dawley, Adipose tissue, rats, oral administration (5 mg/kg)): 111000 ng·h/mL
- AUC(0-t) ([2]; Sprague Dawley, Spleen, rats, oral administration (5 mg/kg)): 3310 ng·h/mL
- AUC(0-t) ([2]; Sprague-Dawley, kidney, Kidneys, rats, oral administration (5 mg/kg)): 11100 ng·h/mL
- Kp ([2]; Sprague-Dawley, kidney, Kidneys, rats, oral administration (5 mg/kg), read-out: Kp (tissue to plasma AUC ratio)): 2.18
- AUC(0-t) ([2]; Sprague-Dawley, lung, Lungs, rats, oral administration (5 mg/kg)): 5520 ng·h/mL
- Kp ([2]; Sprague-Dawley, lung, Lungs, rats, oral administration (5 mg/kg), read-out: Kp (tissue to plasma AUC ratio)): 1.08
- AUC(0-t) ([2]; Sprague-Dawley, muscle, Muscles, rats, oral administration (5 mg/kg)): 6130 ng·h/mL
- Kp ([2]; Sprague-Dawley, muscle, Muscles, rats, oral administration (5 mg/kg), read-out: Kp (tissue to plasma AUC ratio)): 1.2
- Vd ([2]; Sprague-Dawley, 5 mg/kg, sum of Kp × Volume over plasma and tissues, read-out: Vd): 1.92 L/kg
- Kp ([2]; Sprague-Dawley, several tissues (range over tissues), intravenous, 5 mg/kg, range over tissues, PBPK input parameter, Determined, read-out: Tissue: Plasma partition coefficients): 0.649 to 21.7
- AUC(0-t) ([2]; Sprague-Dawley, Adipose tissue, rats, oral administration (5 mg/kg)): 111000 ng·h/mL
- Kp ([2]; Sprague-Dawley, Adipose tissue, rats, oral administration (5 mg/kg), read-out: Kp (tissue to plasma AUC ratio)): 21.7
- AUC(0-t) ([2]; Sprague-Dawley, Brain, rats, oral administration (5 mg/kg)): 4350 ng·h/mL
- Kp ([2]; Sprague-Dawley, Brain, rats, oral administration (5 mg/kg), read-out: Kp (tissue to plasma AUC ratio)): 0.85
- AUC(0-t) ([2]; Sprague-Dawley, Gut, rats, oral administration (5 mg/kg)): 25300 ng·h/mL
- Kp ([2]; Sprague-Dawley, Gut, rats, oral administration (5 mg/kg), read-out: Kp (tissue to plasma AUC ratio)): 4.96
- AUC(0-t) ([2]; Sprague-Dawley, Heart, rats, oral administration (5 mg/kg)): 3550 ng·h/mL
- Kp ([2]; Sprague-Dawley, Heart, rats, oral administration (5 mg/kg), read-out: Kp (tissue to plasma AUC ratio)): 0.7
- AUC(0-t) ([2]; Sprague-Dawley, Liver, rats, oral administration (5 mg/kg)): 24300 ng·h/mL
- Kp ([2]; Sprague-Dawley, Liver, rats, oral administration (5 mg/kg), read-out: Kp (tissue to plasma AUC ratio)): 4.76
- AUC(0-t) ([2]; Sprague-Dawley, Plasma, rats, oral administration (5 mg/kg)): 5110 ng·h/mL
- Kp ([2]; Sprague-Dawley, Plasma, rats, oral administration (5 mg/kg), read-out: Kp (tissue to plasma AUC ratio)): 1
- AUC(0-t) ([2]; Sprague-Dawley, Spleen, rats, oral administration (5 mg/kg)): 3310 ng·h/mL
- Kp ([2]; Sprague-Dawley, Spleen, rats, oral administration (5 mg/kg), read-out: Kp (tissue to plasma AUC ratio)): 0.65
- AUC(0-t) ([2]; Sprague-Dawley, Testes, rats, oral administration (5 mg/kg)): 5370 ng·h/mL
- Kp ([2]; Sprague-Dawley, Testes, rats, oral administration (5 mg/kg), read-out: Kp (tissue to plasma AUC ratio)): 1.05

Source: PMC7998731, “Pharmacokinetic Characterization of Supinoxin and Its Physiologically Based Pharmacokinetic Modeling in Rats” (Pharmaceutics, 2021)
